Measurements reported in US20050250137A1, “Molecular targets of cancer and aging” (priority 2002, published 2005).

Test: GoMiner gene ontology analysis of differentially regulated genes
Design: species or system human
[1] = Biological process: Bbiological—process unknown, GO 0000004, Total 232
[2] = Biological process: Cell adhesion, GO 0007155, Total 361
[3] = Biological process: Cell death, GO 0008219, Total 272
[4] = Biological process: Cell differentiation, GO 0030154, Total 106
[5] = Biological process: Cell motility, GO 0006928, Total 222
[6] = Biological process: Cell organization and biogenesis, GO 0016043, Total 282
[7] = Biological process: Cell proliferation, GO 0008283, Total 667
[8] = Biological process: Cell-cell signaling, GO 0007267, Total 365
[9] = Biological process: Metabolism, GO 0008152, Total 3192
[10] = Biological process: Response to endogenous stimulus, GO 0009719, Total 134
[11] = Biological process: Response to extracellular stimulus, GO 0009991, Total 10
[12] = Biological process: Response to stress, GO 0006950, Total 501
[13] = Biological process: Signal transduction, GO 0007165, Total 1321
[14] = Biological process: Transport, GO 0006810, Total 873
[15] = Biological process: alcohol metabolism, GO 0006066, Total 151
[16] = Biological process: amine metabolism, GO 0009308, Total 175
[17] = Biological process: amino acid and derivative metabolism, GO 0006519, Total 149
[18] = Biological process: anti-apoptosis, GO 0006916, Total 59
[19] = Biological process: apoptotic program, GO 0008632, Total 26
[20] = Biological process: biosynthesis, GO 0009058, Total 525
[21] = Biological process: carbohydrate metabolism, GO 0005975, Total 228
[22] = Biological process: catabolism, GO 0009056, Total 450
[23] = Biological process: cell cycle, GO 0007049, Total 442
[24] = Biological process: cell migration, GO 0016477, Total 39
[25] = Biological process: cell surface receptor linked signal transduction, GO 0007166, Total 588
[26] = Biological process: cell—cell adhesion, GO 0016337, Total 124
[27] = Biological process: cytokinesis, GO 0000910, Total 64
[28] = Biological process: cytoplasm organization and biogenesis, GO 0007028, Total 166
[29] = Biological process: electron transport, GO 0006118, Total 150
[30] = Biological process: energy pathways, GO 0006091, Total 158
[31] = Biological process: induction of apoptosis, GO 0006917, Total 83
[32] = Biological process: induction of programmed cell death, GO 0012502, Total 83
[33] = Biological process: intracellular signaling cascade, GO 0007242, Total 444
[34] = Biological process: intracellular transport, GO 0046907, Total 258
[35] = Biological process: ion transport, GO 0006811, Total 320
[36] = Biological process: lipid metabolism, GO 0006629, Total 299
[37] = Biological process: lymphocyte differentiation, GO 0030098, Total 22
[38] = Biological process: nuclear organization and biogenesis, GO 0006997, Total 109
[39] = Biological process: nucleobase, nucleoside, nucleotide and nucleic acid metabolism, GO 0006139, Total 1351
[40] = Biological process: organic acid metabolism, GO 0006082, Total 226
[41] = Biological process: phosphorus metabolism, GO 0006793, Total 423
[42] = Biological process: protein metabolism, GO 0019538, Total 1170
[43] = Biological process: protein transport, GO 0015031, Total 223
[44] = Biological process: regulation of cell proliferation, GO 0042127, Total 175
[45] = Biological process: regulation of metabolism, GO 0019222, Total 32
[46] = Biological process: response to DNA damage stimulus (under Response to endogenous stimulus), GO 0006974, Total 133
[47] = Biological process: response to DNA damage stimulus (under Response to stress), GO 0006974, Total 133
[48] = Biological process: response to abiotic stimulus, GO 0009628, Total 224
[49] = Biological process: response to biotic stimulus, GO 0009607, Total 552
[50] = Biological process: response to external stimulus, GO 0009605, Total 813
[51] = Biological process: response to pest/pathogen/parasite, GO 0009613, Total 287
[52] = Biological process: response to wounding, GO 0009611, Total 173
[53] = Biological process: taxis, GO 0042330, Total 77
[54] = Biological process: vesicle-mediated transport, GO 0016192, Total 167

Q: With `Nc1ncn([C@H]2C[C@H](O)[C@@H](CO)O2)c(=O)n1` [5-aza-dC, 5-aza-2′-deoxycytidine] as the compound, how does the “5-aza-dC Down” value [1] read?
A: 2

Q: What about the “5-aza-dC Up” value [1] of the same compound?
A: 6

Q: And the “5-aza-dC Down” value [2]?
A: 0

Q: And the “5-aza-dC Up” value [2]?
A: 7

Q: And the “5-aza-dC Down” value [3]?
A: 2

Q: What about the “5-aza-dC Up” value [3] of the same compound?
A: 15

Q: What about the “5-aza-dC Down” value [4] of the same compound?
A: 1

Q: What about the “5-aza-dC Up” value [4] of the same compound?
A: 5

Q: And the “5-aza-dC Down” value [5]?
A: 1

Q: What about the “5-aza-dC Up” value [5] of the same compound?
A: 1

Q: And the “5-aza-dC Down” value [6]?
A: 0

Q: What about the “5-aza-dC Up” value [6] of the same compound?
A: 12

Q: And the “5-aza-dC Down” value [7]?
A: 11

Q: What about the “5-aza-dC Up” value [7] of the same compound?
A: 18

Q: What about the “5-aza-dC Down” value [8] of the same compound?
A: 0

Q: What about the “5-aza-dC Up” value [8] of the same compound?
A: 11

Q: And the “5-aza-dC Down” value [9]?
A: 18

Q: What about the “5-aza-dC Up” value [9] of the same compound?
A: 78

Q: And the “5-aza-dC Down” value [10]?
A: 1

Q: And the “5-aza-dC Up” value [10]?
A: 2

Q: What about the “5-aza-dC Down” value [11] of the same compound?
A: 0

Q: And the “5-aza-dC Up” value [11]?
A: 1

Q: And the “5-aza-dC Down” value [12]?
A: 3

Q: And the “5-aza-dC Up” value [12]?
A: 21

Q: What about the “5-aza-dC Down” value [13] of the same compound?
A: 6

Q: And the “5-aza-dC Up” value [13]?
A: 33

Q: And the “5-aza-dC Down” value [14]?
A: 1

Q: What about the “5-aza-dC Up” value [14] of the same compound?
A: 12

Q: What about the “5-aza-dC Down” value [15] of the same compound?
A: 2

Q: And the “5-aza-dC Up” value [15]?
A: 4

Q: And the “5-aza-dC Down” value [16]?
A: 1

Q: What about the “5-aza-dC Up” value [16] of the same compound?
A: 3

Q: And the “5-aza-dC Down” value [17]?
A: 1

Q: What about the “5-aza-dC Up” value [17] of the same compound?
A: 3

Q: What about the “5-aza-dC Down” value [18] of the same compound?
A: 0

Q: And the “5-aza-dC Up” value [18]?
A: 5

Q: What about the “5-aza-dC Down” value [19] of the same compound?
A: 1

Q: And the “5-aza-dC Up” value [19]?
A: 3

Q: And the “5-aza-dC Down” value [20]?
A: 6

Q: What about the “5-aza-dC Up” value [20] of the same compound?
A: 7

Q: What about the “5-aza-dC Down” value [21] of the same compound?
A: 2

Q: And the “5-aza-dC Up” value [21]?
A: 4

Q: And the “5-aza-dC Down” value [22]?
A: 2

Q: And the “5-aza-dC Up” value [22]?
A: 9

Q: And the “5-aza-dC Down” value [23]?
A: 7

Q: And the “5-aza-dC Up” value [23]?
A: 14

Q: What about the “5-aza-dC Down” value [24] of the same compound?
A: 0

Q: And the “5-aza-dC Up” value [24]?
A: 1

Q: What about the “5-aza-dC Down” value [25] of the same compound?
A: 2

Q: And the “5-aza-dC Up” value [25]?
A: 14

Q: And the “5-aza-dC Down” value [26]?
A: 0

Q: What about the “5-aza-dC Up” value [26] of the same compound?
A: 1

Q: And the “5-aza-dC Down” value [27]?
A: 2

Q: And the “5-aza-dC Up” value [27]?
A: 0

Q: What about the “5-aza-dC Down” value [28] of the same compound?
A: 0

Q: What about the “5-aza-dC Up” value [28] of the same compound?
A: 1

Q: What about the “5-aza-dC Down” value [29] of the same compound?
A: 2

Q: What about the “5-aza-dC Up” value [29] of the same compound?
A: 4

Q: And the “5-aza-dC Down” value [30]?
A: 2

Q: What about the “5-aza-dC Up” value [30] of the same compound?
A: 1

Q: What about the “5-aza-dC Down” value [31] of the same compound?
A: 0

Q: What about the “5-aza-dC Up” value [31] of the same compound?
A: 3

Q: And the “5-aza-dC Down” value [32]?
A: 0

Q: What about the “5-aza-dC Up” value [32] of the same compound?
A: 3

Q: What about the “5-aza-dC Down” value [33] of the same compound?
A: 2

Q: What about the “5-aza-dC Up” value [33] of the same compound?
A: 10

Q: And the “5-aza-dC Down” value [34]?
A: 1

Q: And the “5-aza-dC Up” value [34]?
A: 6

Q: What about the “5-aza-dC Down” value [35] of the same compound?
A: 0

Q: What about the “5-aza-dC Up” value [35] of the same compound?
A: 2

Q: And the “5-aza-dC Down” value [36]?
A: 1

Q: And the “5-aza-dC Up” value [36]?
A: 4

Q: What about the “5-aza-dC Down” value [37] of the same compound?
A: 0

Q: What about the “5-aza-dC Up” value [37] of the same compound?
A: 3

Q: And the “5-aza-dC Down” value [38]?
A: 0

Q: And the “5-aza-dC Up” value [38]?
A: 11

Q: And the “5-aza-dC Down” value [39]?
A: 6

Q: And the “5-aza-dC Up” value [39]?
A: 41

Q: What about the “5-aza-dC Down” value [40] of the same compound?
A: 1

Q: And the “5-aza-dC Up” value [40]?
A: 3

Q: And the “5-aza-dC Down” value [41]?
A: 5

Q: What about the “5-aza-dC Up” value [41] of the same compound?
A: 9

Q: What about the “5-aza-dC Down” value [42] of the same compound?
A: 9

Q: And the “5-aza-dC Up” value [42]?
A: 27

Q: And the “5-aza-dC Down” value [43]?
A: 1

Q: And the “5-aza-dC Up” value [43]?
A: 7

Q: What about the “5-aza-dC Down” value [44] of the same compound?
A: 3

Q: What about the “5-aza-dC Up” value [44] of the same compound?
A: 8

Q: What about the “5-aza-dC Down” value [45] of the same compound?
A: 0

Q: What about the “5-aza-dC Up” value [45] of the same compound?
A: 1

Q: What about the “5-aza-dC Down” value [46] of the same compound?
A: 1

Q: And the “5-aza-dC Up” value [46]?
A: 2

Q: What about the “5-aza-dC Down” value [47] of the same compound?
A: 1

Q: And the “5-aza-dC Up” value [47]?
A: 2

Q: What about the “5-aza-dC Down” value [48] of the same compound?
A: 0

Q: And the “5-aza-dC Up” value [48]?
A: 8

Q: What about the “5-aza-dC Down” value [49] of the same compound?
A: 1

Q: What about the “5-aza-dC Up” value [49] of the same compound?
A: 26

Q: And the “5-aza-dC Down” value [50]?
A: 2

Q: What about the “5-aza-dC Up” value [50] of the same compound?
A: 30

Q: And the “5-aza-dC Down” value [51]?
A: 1

Q: And the “5-aza-dC Up” value [51]?
A: 17

Q: What about the “5-aza-dC Down” value [52] of the same compound?
A: 1

Q: What about the “5-aza-dC Up” value [52] of the same compound?
A: 14

Q: And the “5-aza-dC Down” value [53]?
A: 0

Q: What about the “5-aza-dC Up” value [53] of the same compound?
A: 7

Q: What about the “5-aza-dC Down” value [54] of the same compound?
A: 0

Q: And the “5-aza-dC Up” value [54]?
A: 2

Q: And the “5-aza-dC Down” value (Cellular component: Cellular—component unknown, GO 0008372, Total 266)?
A: 2
